Measured values taken from publication PMC4585835 (Scientific Reports, 2015).
Read-outs that look alike come from different tables or passages of the source. Where a SMILES comes first, the peptide text is derived from it. Where no end group is shown, it is not given here. [ ]: non-standard residue; d: D form. The star is where a group is joined. Stearoyl = CCCCCCCCCCCCCCCCCC(=O)*

Key:
[1] = Pharmacokinetics in rats, i.v.; format: in vivo; conditions: rat, 1 μmol/kg i.v., n = 5; for AUC(0-t): read-out: AUC(0-t) (converted); for MRT last: read-out: MRT0-t (converted); for Vd: read-out: Vss
Procedure: SD Rats were randomly divided into three groups (n = 5). […] All blood samples were immediately centrifuged at 5000 rpm for 5 min at room temperature, and the plasma obtained was stored at −20 °C before analysis. To the rat plasma (100 μL) was added 10 μL internal standard (80 ~ 100 ng/ml Carbamazepine), followed by mixing with 200 μL methanol with vortexing for 1 min. At this stage, certain amounts of proteins may precipitate out, thus this mixture was centrifuged at 12,000 rpm for 5 min at room temperature to achieve complete separation. The 20 μl supernatant was injected into a HPLC (Symbiosis, Spark, Holland; column: 50 mm × 2.1 mm, 5 μm, Agilent Eclipse Plus) –MS/MS system (ABI 4000 Q-Trap triple quadrupole mass spectrometer) equipped with electrospray ionization (ESI) source in the positive ion mode (Foster City, USA). The HPLC elution gradient was as follows: 0–0.5 min, 5–5% (B); 0.5–3 min, 5–95% (B); 3–4 min, 95–95% (B); 4–4.06 min, 95–5% (B); 4.06–6 min, 5–5% (B); the flow-rate was 0.4 ml/min; A was 0.1% formic acid/Waterl, B was 0.1% formic acid/methanol. The MS parameters were: CUR10Psi; Ion Spray Voltage (IS) 5500v; Collision activated dissociation (CAD) High, Gas1 = 50 psi, Gas2 = 50 psi, TEM = 500 °C.
All three peptides remained stable in plasma during three freeze/thaw cycles, at room temperature for at least 2 h. The supernatant of plasma samples were also found to be stable for at least 24 h at 10 °C in the autosampler.
The statistical significance of the difference among pharmacokinetic parameters was determined using the mean comparison Student’s t-test, and the resulting P values were lower than 0.05, which is considered to be statistically significant.

human thrombin [2] = molecular target: T1, human thrombin (Homo sapiens, UniProt P00734); experiment: Degradation mediated by human thrombin (HPLC); format: in vitro ADME; conditions: human thrombin (69 NIH/mL) in Tris-HCl buffer, pH 8, 69 NIH/ml human thrombin, peptide 0.41 mM, 37 °C, read-out: peptide remained after reaction with human thrombin
T1 construct: purchased National Institute for the Control of Pharmaceutical and Biological Products (Beijing, China)
Procedure: The catalytic cleavage of peptides mediated by thrombin was also examined using the same method. Specifically, a peptide solution (0.41 mM) was first incubated with thrombin (69 NIH/mL) in Tris-HCl buffer (70 mM Tris HCl, NaCl 50 mM, pH = 8.0) at 37 °C.

trypsin = molecular target: T2, trypsin (Bos taurus, UniProt P00760); experiment: Degradation mediated by trypsin (HPLC); format: in vitro ADME; conditions: trypsin (119 ng/μL) in Tris-HCl buffer, pH 8.5, 119 μg/ml trypsin, peptide 0.79 mM, 37 °C, read-out: peptide intact after incubation with trypsin
T2 construct: purchased Roche Corp (Indianapolis, USA)
T2 sequence (P00760 24-246): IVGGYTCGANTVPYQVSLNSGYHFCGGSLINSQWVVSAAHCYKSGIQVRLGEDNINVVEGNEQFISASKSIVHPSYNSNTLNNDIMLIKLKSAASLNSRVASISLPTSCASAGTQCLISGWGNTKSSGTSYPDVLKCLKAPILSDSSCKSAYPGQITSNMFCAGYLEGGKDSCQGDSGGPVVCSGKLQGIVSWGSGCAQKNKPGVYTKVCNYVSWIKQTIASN
Description: The degradation of peptides mediated by trypsin can be effectively monitored by HPLC analysis. […] The detector wavelength was set at 214 nm.

rat thrombin = molecular target: T3, rat thrombin (Rattus norvegicus, UniProt P18292); experiment: Inhibition of rat thrombin-catalyzed hydrolysis of Chromozym TH; format: biochemical; conditions: 25 °C, pH 7.4
T3 construct: purchased Sigma

[3] = Bleeding time test (BT) in rats; format: in vivo, rat; conditions: 30 min after administration
Procedure: Bleeding time was determined as reported previously. Male SD rats (180–220 g) were divided into 6 groups (n = 8). […] Thirty minutes after the injection, bleeding was induced by tail transection of the anesthetized rat with a size 21 disposable scalpel blade 2 mm from the tail tip. The bleeding tail was wiped with filter paper every 30 s, and the bleeding time was recorded when no blood was observed on the filter paper.

human thrombin [4] = molecular target: T1, human thrombin; experiment: Inhibition of human thrombin-catalyzed hydrolysis of Chromozym TH; format: biochemical; conditions: 25 °C, pH 7.4
Procedure: The inhibition constant (Ki) was determined as reported previously. A 0.05 mL of peptide solution (concentration 10, 25, 50, 100, 150, 500 and 1000 nM, respectively) was added to 0.4 mL mixture of Hepes buffer (10 mM Hepes, 10 mM Tris, 0.1 M NaCl, 0.1% PEG 6000, pH 7.4) and bovine or human thrombin (0.25 NIH). The resulting solution was incubated at 25 °C for 2 min, followed by the addition of 0.05 mL Chromozym TH (concentration 25, 33, 40, 50, 100, 125, 200, 330, 500, and […], respectively). The absorbance at 405 nm was measured using a Beckman DU640 spectrometer. The inhibition constant (Ki) was determined using the following equation (Eq.1) originally developed for competitive inhibition processes[25]:
Herein, S is the initial substrate concentration; I is the inhibitor concentration; v is the initial steady-state velocity; Vmax is the limiting maximal velocity; and Km is the dissociation constant of the complex.

[5] = system: Trypsin (modified sequencing grade); experiment: trypsin (119 ng/μL) in the Tris-HCl buffer (90 mM, pH = 8.5); conditions: 37 °C, up to 5 h
human thrombin [6] = experiment: thrombin (69 NIH/mL) in Tris-HCl buffer (70 mM Tris HCl, NaCl 50 mM, pH = 8.0); conditions: 37 °C, up to 5 h

Molecule: CC[C@H](C)[C@H](NC(=O)[C@H](CCC(=O)O)NC(=O)[C@H](CCC(=O)O)NC(=O)[C@H](Cc1ccccc1)NC(=O)[C@H](CC(=O)O)NC(=O)CNC(=O)[C@H](CC(N)=O)NC(=O)CNC(=O)CNC(=O)CNC(=O)CNC(=O)[C@@H]1CCCN1C(=O)[C@H](CCCNC(=N)N)NC(=O)[C@@H]1CCCN1C(=O)[C@H](N)Cc1ccccc1)C(=O)N1CCC[C@H]1C(=O)N[C@@H](CCC(=O)O)C(=O)N[C@@H](CCC(=O)O)C(=O)N[C@@H](Cc1ccc(O)cc1)C(=O)N[C@@H](CC(C)C)C(=O)O [Hirulog-1, reference compound]
- AUC(0-inf) ([1]; SD, plasma, iv, 1 umol/kg): 415 nM·h
- Cmax ([1]; SD, plasma, iv, 1 umol/kg): 3.1 ± 1.1 µM
- clearance ([1]; SD, plasma, iv, 1 umol/kg): 2.56 ± 0.312 L/h/kg
- AUC(0-t) ([1]; SD, plasma, iv, 1 umol/kg): 395 nM·h
- MRT last ([1]; SD, plasma, iv, 1 umol/kg): 12.1 min
- Vd ([1]; SD, plasma, iv, 1 umol/kg): 0.522 ± 0.151 L/kg
- remaining at 3 h, 0.41 mM (human thrombin [2]): 57%
- remaining at 5 h, 0.41 mM (human thrombin [2]): 23%
- remaining at 3 h, 0.79 mM (trypsin): 10%
- remaining at 5 h, 0.79 mM (trypsin): 6%
- Ki (rat thrombin): 20.5 ± 0.62 nM
- bleeding time (BT) ([3]; 8 mg/kg): 525.00 ± 48.11 s

Molecule: CC[C@H](C)[C@H](NC(=O)[C@@H]1CCCN1C(=O)[C@H](CCC(=O)O)NC(=O)[C@H](Cc1ccccc1)NC(=O)[C@H](CC(=O)O)NC(=O)CNC(=O)[C@H](CCC(N)=O)NC(=O)CNC(=O)CNC(=O)CNC(=O)CNC(=O)[C@@H]1CCCN1C(=O)[C@H](CCCNC(=N)N)NC(=O)[C@@H]1CCCN1C(=O)[C@H](N)Cc1ccccc1)C(=O)N1CCC[C@H]1C(=O)N[C@@H](CCC(=O)O)C(=O)N[C@@H](CC(=O)O)C(=O)N[C@@H](C)C(=O)N[C@@H](Cc1ccc(O)cc1)C(=O)N[C@@H](CC(=O)O)C(=O)N[C@@H](CCC(=O)O)C(N)=O [Peptide 1] (H-[dF]PRPGGGGQGDFEPIPEDAYDE-NH2)
- AUC(0-inf) ([1]; SD, plasma, iv, 1 umol/kg): 432 nM·h
- AUC(0-t) ([1]; SD, plasma, iv, 1 umol/kg): 428 nM·h
- Cmax ([1]; in vivo, iv, 1 umol/kg): 2.3 ± 0.4 µM
- clearance ([1]; in vivo, iv, 1 umol/kg): 2.18 ± 0.216 L/h/kg
- MRT last ([1]; in vivo, iv, 1 umol/kg): 13.9 min
- Vd ([1]; in vivo, iv, 1 umol/kg): 0.504 ± 0.0217 L/kg
- T1/2 [1]: 13.5 ± 2.6 min
- half-life ([1]; in vivo, iv, 1 umol/kg): < 16 min
- remaining at 3 h, 0.41 mM (human thrombin [2]): 70%
- remaining at 5 h, 0.41 mM (human thrombin [2]): 46%
- remaining at 3 h, 0.79 mM (trypsin): 5%
- remaining at 5 h, 0.79 mM (trypsin): 1%
- Ki (rat thrombin): 13.4 ± 0.46 nM

Molecule: CCCCCCCCCCCCCCCCCC(=O)NCCCC[C@H](NC(=O)[C@@H]1CCCN1C(=O)[C@H](CCCNC(=N)N)NC(=O)[C@@H]1CCCN1C(=O)[C@H](N)Cc1ccccc1)C(=O)NCC(=O)NCC(=O)NCC(=O)N[C@@H](CCC(N)=O)C(=O)NCC(=O)N[C@@H](CC(=O)O)C(=O)N[C@@H](Cc1ccccc1)C(=O)N[C@@H](CCC(=O)O)C(=O)N1CCC[C@H]1C(=O)N[C@H](C(=O)N1CCC[C@H]1C(=O)N[C@@H](CCC(=O)O)C(=O)N[C@@H](CC(=O)O)C(=O)N[C@@H](C)C(=O)N[C@@H](Cc1ccc(O)cc1)C(=O)N[C@@H](CC(=O)O)C(=O)N[C@@H](CCC(=O)O)C(N)=O)[C@@H](C)CC [Peptide S1] (H-[dF]PRPK(Stearoyl)GGGQGDFEPIPEDAYDE-NH2; N-terminus assumed)
- Ki (rat thrombin): 37.4 ± 1.16 nM
- Ki (human thrombin [4]): 19.5 ± 0.4 nM

Molecule: CCCCCCCCCCCCCCCCCC(=O)NCCCC[C@H](NC(=O)CNC(=O)CNC(=O)CNC(=O)[C@@H]1CCCN1C(=O)[C@H](CCCNC(=N)N)NC(=O)[C@@H]1CCCN1C(=O)[C@H](N)Cc1ccccc1)C(=O)N[C@@H](CCC(N)=O)C(=O)NCC(=O)N[C@@H](CC(=O)O)C(=O)N[C@@H](Cc1ccccc1)C(=O)N[C@@H](CCC(=O)O)C(=O)N1CCC[C@H]1C(=O)N[C@H](C(=O)N1CCC[C@H]1C(=O)N[C@@H](CCC(=O)O)C(=O)N[C@@H](CC(=O)O)C(=O)N[C@@H](C)C(=O)N[C@@H](Cc1ccc(O)cc1)C(=O)N[C@@H](CC(=O)O)C(=O)N[C@@H](CCC(=O)O)C(N)=O)[C@@H](C)CC [Peptide S3] (H-[dF]PRPGGGK(Stearoyl)QGDFEPIPEDAYDE-NH2; N-terminus assumed)
- Ki (rat thrombin): 54.5 ± 0.82 nM
- Ki (human thrombin [4]): 11 ± 0.15 nM

Molecule: D-FPRP-GGGG-QGDFEEIPEEYL
- cleaved bond [5]: Arg-Pro
- cleaved bond (human thrombin [6]): Arg-Pro

Molecule: D-FPRP-GGGG-QGDFEPIPEDAYDE^*
- cleaved bond [5]: Arg-Pro
- cleaved bond (human thrombin [6]): Arg-Pro

Molecule: D-FPRP-GK(stearic acid)GG-QGDFEPIPEDAYDE^* ([dF]PRPGK(Stearoyl)GGQGDFEPIPEDAYDE-NH2)
- cleaved bond [5]: Arg-Pro
- cleaved bond (human thrombin [6]): Arg-Pro

Molecule: heparin [reference compound]
- bleeding time (BT) ([3]; 200 IU/kg): 401 ± 83.23 s
